By viability is commonly meant a read-out of living cells in per cent, often relative to untreated cells. The IC50 is the concentration that gives 50% inhibition.

Where “and” joins values, the source holds several entries; their conditions need not be identical. Equal values may be shown once. Entries after “also recorded” stand apart in the source; their conditions may differ. Read-outs that look alike come from different tables or passages of the source.

We go through three compounds from paper PMC12566191, “Isolation and In Vitro Activity of Sesquiterpene Lactones from Eremanthus crotonoides as SARS-CoV-2 Protease Inhibitors and Cytotoxic Agents” (Molecules, 2025).

Data set [1] deals with clinical isolate of S. aureus. Details: method as in doi:10.1007/s43450-021-00176-z. As to conditions: cited from earlier work.
The subject of another data set is S. aureus. On the set-up: method as in doi:10.1007/s43450-021-00176-z. To be noted: cited from earlier work.
The nature of data set [2]: Cell viability, MTT assay, PC-3. To be noted: human. In kind it is cell-based, human. The procedure: (§1) The cytotoxicity of crude extract and isolated compounds were evaluated against the human tumor cell lines PC-3 (prostatic carcinoma cell) and HCT-116 (colorectal carcinoma cell). Cell maintenance was performed as described in the literature. The extract and isolated compounds were tested at the concentrations of 0.05 and 50 μg/mL and 0.01 and 10 μM, respectively. Saponin digitonin (100 µM), a very potent permeabilizer of cell membranes, was used as positive control to induce 0% cell viability after 48 h of treatment.
(§2) Cell viability was determined by MTT and crystal violet (CV) assays after 48 h of incubation. Absorbance was measured using an automated microplate reader at 540 nm with a reference wavelength of 670 nm. Results are expressed as percentages relative to untreated control cultures.
(Tetrazolium dyes change colour on reduction, which living cells bring about.)

The next data set deals with glioblastoma multiforme. Details: method as in doi:10.1590/S0102-695X2012005000131. As to conditions: cited from earlier work.
Data set [3] can be described thus: Cell viability, crystal violet (CV) assay, PC-3. In kind it is cell-based. To be noted: human. The method, then:
as §1, §2

Data set [4] can be described thus: Cell viability, MTT assay, HCT-116. The format is cell-based, human. As to conditions: human. The method, then:
as §1, §2

In data set [5] the target is Recombinant SARS-CoV-2 PLpro (Severe acute respiratory syndrome coronavirus 2, UniProt P0DTD1). The experiment in a line: FRET enzymatic inhibition assay, PLpro. The format is biochemical.
A short description of data set [6]: Cell viability, crystal violet (CV) assay, HCT-116. In kind it is cell-based. As to conditions: human. The procedure: as §1, §2
For data set [7], the target named is Recombinant SARS-CoV-2 3CLpro (Severe acute respiratory syndrome coronavirus 2, UniProt P0DTD1). The experiment in a line: FRET enzymatic inhibition assay, 3CLpro. The format is biochemical. As to conditions: for inhibition at 1000 µM: read-out: Maximum inhibition (%) 3CLpro.
In data set [8] the test system is PC-3 (prostatic carcinoma cell). The experiment in a line: Cell viability, MTT assay, PC-3. The format is cell-based, human. To be noted: 10 µM (goyazensolide: ≤ 10 µM), 48 h, MTT and CV assays. The method, then:
as §1, §2

For data set [9], the system named is HCT-116 (colorectal carcinoma cell). The experiment in a line: Cell viability, MTT assay, HCT-116. In kind it is cell-based, human. As to conditions: 10 µM (goyazensolide: ≤ 10 µM), 48 h, MTT and CV assays. The procedure: as §1, §2
Setting [10] is: maximum inhibition conc. 1,000 µM (highest concentration tested).
Where [11] appears, read: HCT-116 colorectal carcinoma cells.
Where [12] appears, read: 125 µg/mL (101.7 µM), positive control.

Regarding `C=C1C(=O)OC2C=C(CO)C3=CC(=O)C(C)(CC(OC(=O)C(C)=CC)C12)O3` (stereo not drawn) [Centratherin, centratherin], the “Concentration inhibiting clinical isolate of S. aureus” value in data set [1] is given as 32 µg/mL. The “Concentration with antibiofilm activity” value in the data set on S. aureus was 128 µg/mL. The viability at 48 h, 0.01 µM worked out at 100 ± 13.5% in [2], 100 ± 3.6% in data set [3], 100 ± 9.6% in [4] and 114 ± 5.6% in [6]. The viability at 48 h, 10 µM was determined as 0% in data set [2], 0% in data set [3], 0% in [4] and 3.5 ± 9.1% in data set [6]. Besides, the “Cytotoxic activity against glioblastoma multiforme” value with glioblastoma multiforme is on record as “exhibited cytotoxic activity”. Also, in the data set with glioblastoma multiforme, the “IC50 values against glioblastoma multiforme, compared with doxorubicin” value was “comparable to the commercial anticancer drug doxorubicin”. The IC50 in data set [5] (Apparent IC50 PLpro) is 12 µM and 11.9 µM; in data set [7] (Apparent IC50 3CLpro) it was 165 µM. In data set [5] (setting [10]), the “Maximum inhibition (%) PLpro” value is listed as 97%. Besides, the inhibition at 1000 µM in data set [5] (read-out: Maximum inhibition (%) PLpro, maximum inhibition conc. 1,000 µM (highest concentration tested)) is 96.77 ± 0.3%; in data set [7] it was 89.5 ± 0.97%.
As to `C=C(C)C(=O)OC1CC2(C)OC(=CC2=O)C(CO)=CC2OC(=O)C(=C)C21` (stereo not drawn) [Goyazensolide, goyazensolide], in [8], the “Reduction of cell viability, PC-3” value was “no noteworthy effects; also recorded: unable to decrease cell viability; also recorded: no such effect”. Besides, the viability at 48 h, 0.01 µM in data set [2] (PC-3 prostatic carcinoma cells) came to 86.6 ± 4.7%; in data set [3] (PC-3 prostatic carcinoma cells), 89.5 ± 2.8%; in data set [4] (setting [11]) it was 99.6 ± 5.9%; in data set [6] (setting [11]), 113 ± 4%. Further, the viability at 48 h, 10 µM in data set [2] (PC-3 prostatic carcinoma cells) is 100 ± 18%; in data set [3] (PC-3 prostatic carcinoma cells), 91.4 ± 1.7%; in [4] (setting [11]), 100 ± 5.8%; in data set [6] (setting [11]), 92.1 ± 9%. Further, the “Reduction of cell viability, HCT-116” value in data set [9] was “no noteworthy effects; also recorded: unable to decrease cell viability; also recorded: no such effect”. Also, the inhibition at 1000 µM in data set [5] (maximum inhibition conc. 1,000 µM (highest concentration tested), read-out: Maximum inhibition (%) PLpro) is 80.7 ± 5.9%; in data set [7] (setting [10]) it was 96.14 ± 0.01%. Moreover, the half-inhibitory concentration (IC50) in [5] (read-out: Apparent IC50 PLpro) was 317 µM; in data set [7] (read-out: Apparent IC50 3CLpro) it was 71.1 µM and 71 µM. For the same compound, the “Maximum inhibition (%) 3CLpro” value in data set [7] (setting [10]) turned out to be 96%.
For `C[C@@H]1CC[C@@]2(OC1)O[C@H]1[C@@H](O)[C@H]3[C@@H]4CC[C@H]5C[C@@H](O[C@@H]6O[C@H](CO)[C@H](O[C@@H]7O[C@H](CO)[C@@H](O)[C@H](O[C@@H]8OC[C@@H](O)[C@H](O)[C@H]8O)[C@H]7O[C@@H]7O[C@H](CO)[C@H](O)[C@H](O[C@@H]8O[C@H](CO)[C@@H](O)[C@H](O)[C@H]8O)[C@H]7O)[C@H](O)[C@H]6O)[C@H](O)C[C@]5(C)[C@H]4CC[C@]3(C)[C@H]1[C@@H]2C` [DGTN, digitonin, reference compound], the viability at 48 h, 101.7 µM in [2] (setting [12]), in data set [3] (setting [12]), in data set [4] (setting [12]) and in [6] (setting [12]) was 0% throughout.
